In article PMC9356065, “Novel psoralen derivatives as anti-breast cancer agents and their light-activated cytotoxicity against HER2 positive breast cancer cells” (Scientific Reports, 2022):

What was measured:
[1] = test system: differentiated HL-60 cells; experiment: Inhibition of TPA-induced superoxide anion radical generation (HL-60 Antioxidant); format: cell-based, human; conditions: screening concentration 100 µM; for inhibition at 100 µM: Homo sapiens, HL-60, read-out: HL-60 Antiox. %Inh
From the text: Inhibition of 12-O-tetradecanoylphorbol-13-acetate (TPA)-induced superoxide anion radical generation in differentiated HL-60 cells (HL-60 Antioxidant) TPA-induced superoxide anion radical formation was detected in differentiated HL-60 cells by photometric determination of cytochrome c reduction as previously described by Gerhäuser et al., 2003.ii Superoxide dismutase (SOD;15U) was a positive control. […]

MDA-MB-231 [2] = experiment: MTT cytotoxicity, 48 h, without UVA; format: cell-based; conditions: Homo sapiens, MDA-MB-231, light or radiation study; for inhibition at 50 µg/mL: I = %inhibition lower than 50%, read-out: Cytotoxic activity MDA-MB-231 %Inhibition; for IC50: hormone-independent breast cancer, read-out: Cytotoxic activity MDA-MB-231 IC50
Procedure: (§1) MDA-MB-231 (triple-negative breast cancer) was obtained from M.D. Anderson Cancer Center, Houston, TX, USA). T47-D (hormone-dependent breast carcinoma), SK-BR-3 (human HER2+ breast cancer), and MRC-5 (normal embryonic lung fibroblast) were obtained from the American Type Culture Collection (ATCC, Manassas, VA, USA).
(§2) The cytotoxic effect of tested compounds was evaluated in two breast cancer cell lines, MDA-MB-231 and T47-D. Number of survival cells after exposure to tested compounds for 48 h was determined by MTT assay, as previously described.

T47-D = experiment: MTT cytotoxicity, 48 h, without UVA; format: cell-based, human; conditions: for inhibition at 50 µg/mL / IC50: Homo sapiens, T47D, light or radiation study, 48 h, without UVA; for inhibition at 50 µg/mL: I = %inhibition lower than 50%, read-out: Cytotoxic activity T47-D %Inhibition; for IC50: hormone-dependent breast cancer, read-out: Cytotoxic activity T47-D IC50; for Selectivity Index (SI): SI = IC50 for MRC-5/IC50 for T47-D
Procedure: Additionally, the cytotoxicity towards normal cells, human embryonal lung fibroblast cell MRC-5 was also assessed.
as §1, §2

[3] = Scavenging of diphenyl-picryl-hydrazyl radicals (DPPH); conditions: for DPPH %Inh: screening concentration 250 µM
From the text: 1. Chemoprevention activity

aromatase (CYP19) = molecular target: T1, aromatase (CYP19) (Homo sapiens, UniProt P11511); experiment: Inhibition of aromatase (AIA); format: biochemical; conditions: for inhibition at 12.5 µM: I = %inhibition lower than 50%, read-out: Aromatase inhibitory activity %Inhibition; for IC50: read-out: Aromatase inhibitory activity IC50
T1 sequence (P11511 1-503): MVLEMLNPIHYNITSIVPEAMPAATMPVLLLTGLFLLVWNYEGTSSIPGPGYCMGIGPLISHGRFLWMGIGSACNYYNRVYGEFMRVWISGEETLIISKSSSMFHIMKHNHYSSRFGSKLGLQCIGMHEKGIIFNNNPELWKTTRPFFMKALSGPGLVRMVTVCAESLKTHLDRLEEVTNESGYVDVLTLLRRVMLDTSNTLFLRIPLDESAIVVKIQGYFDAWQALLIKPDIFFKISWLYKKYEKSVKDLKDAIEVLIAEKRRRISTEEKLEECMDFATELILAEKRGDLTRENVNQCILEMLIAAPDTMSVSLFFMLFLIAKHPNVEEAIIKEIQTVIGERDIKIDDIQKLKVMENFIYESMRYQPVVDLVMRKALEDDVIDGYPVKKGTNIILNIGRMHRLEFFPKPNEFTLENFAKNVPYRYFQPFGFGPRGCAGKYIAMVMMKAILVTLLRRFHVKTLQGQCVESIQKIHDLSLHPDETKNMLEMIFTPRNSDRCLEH
Procedure: Estrogens are the critical risk factor for breast cancer initiation and progression and the aromatase enzyme involves in the final step conversion of androgens to estrogens[21],[22]. […] In this study, the synthesized psoralen derivatives were also tested for aromatase inhibitory activity (AIA) which is considered to be one of chemopreventive mechanisms for hormone dependent breast cancer.
Inhibition of the aromatase was performed using the method designed by Stresser et al.[39].

[4] = Inhibition of superoxide radical formation by xanthine/xanthine oxidase (XXO); format: biochemical; conditions: for XXO %Inh: screening concentration 500 µM
From the text: 1. […]

SK-BR-3 [5] = experiment: Dark and light-activated (UVA) cytotoxicity, MTT; format: cell-based, human; conditions: Homo sapiens, SK-BR-3, light or radiation study; irradiation with UVA (2.0 J cm^−2); HER2+ breast cancer
Procedure: (§3) The selected compounds were screened for their IC50 values against both HER2+ breast cancer (SK-BR-3), and HER2− breast cancer (MDA-MB-231) in both dark and light-activated conditions (Table 2). Additionally, a negative control study was also performed with SK-BR-3 and MDA-MB-231 cells in the absence of tested compound under UVA irradiation (See Fig S7., Supporting Information).
(§4) SK-BR-3 and MDA-MB-231 cells were seeded into 96-well cell culture plates at 5 × 10^3 cells/well and incubated for 24 h at 37 °C under 5% CO2. After that, the cells were treated with 50 μM of psoralen derivatives in DMEM with 10% FBS and the cells were continued incubation for another 4 h. After incubation, the cells were washed with PBS (3 times) and then irradiated by a 365 nm lamp with the light intensity of 2.0 J cm^−2 for 12.5 min before re-incubation for another 72 h. After incubation, the cell was treated with methylthiazolyldiphenyl-tetrazolium bromide (MTT reagent 200 μL, 0.5 mg mL^−1, Sigma-Aldrich) for 2 h. After reagent removal, DMSO was added to dissolve the formazan product and the cell viabilities were determined through UV–Vis absorption of the resulting formazan at wavelength 560 nm using a microplate reader (BMG Labtech/SPECTROstar Nano). The cell morphology images were captured by using a light microscope (Microscope Nikon, inverted digital) at 20X magnification prior to treating with MTT reagent.

MDA-MB-231 [6] = experiment: Dark and light-activated (UVA) cytotoxicity, MTT; format: cell-based; conditions: Homo sapiens, dark, HER2− breast cancer
SK-BR-3 [7] = experiment: Dark and light-activated (UVA) cytotoxicity, MTT; format: cell-based; conditions: Homo sapiens, dark, HER2+ breast cancer
MDA-MB-231 [8] = experiment: Dark and light-activated (UVA) cytotoxicity, MTT; format: cell-based; conditions: Homo sapiens, MDA-MB-231, light or radiation study; irradiation with UVA (2.0 J cm^−2); HER2− breast cancer
Procedure: as §3, §4

xanthine oxidase = xanthine oxidase (Homo sapiens, UniProt P47989); experiment: Inhibition of xanthine oxidase (IXO); format: biochemical; conditions: screening concentration 500 µM; read-out: IXO %Inh
Procedure: 1. […]
Inhibition of xanthine oxidase (IXO)
Xanthine oxidase activity was determined by quantifying the amount of uric acid produced
from xanthine. […]

MCF-7 = conditions: Fig. 1d; cited from earlier work

Sequence of xanthine oxidase (P47989 whole entry, species assumed): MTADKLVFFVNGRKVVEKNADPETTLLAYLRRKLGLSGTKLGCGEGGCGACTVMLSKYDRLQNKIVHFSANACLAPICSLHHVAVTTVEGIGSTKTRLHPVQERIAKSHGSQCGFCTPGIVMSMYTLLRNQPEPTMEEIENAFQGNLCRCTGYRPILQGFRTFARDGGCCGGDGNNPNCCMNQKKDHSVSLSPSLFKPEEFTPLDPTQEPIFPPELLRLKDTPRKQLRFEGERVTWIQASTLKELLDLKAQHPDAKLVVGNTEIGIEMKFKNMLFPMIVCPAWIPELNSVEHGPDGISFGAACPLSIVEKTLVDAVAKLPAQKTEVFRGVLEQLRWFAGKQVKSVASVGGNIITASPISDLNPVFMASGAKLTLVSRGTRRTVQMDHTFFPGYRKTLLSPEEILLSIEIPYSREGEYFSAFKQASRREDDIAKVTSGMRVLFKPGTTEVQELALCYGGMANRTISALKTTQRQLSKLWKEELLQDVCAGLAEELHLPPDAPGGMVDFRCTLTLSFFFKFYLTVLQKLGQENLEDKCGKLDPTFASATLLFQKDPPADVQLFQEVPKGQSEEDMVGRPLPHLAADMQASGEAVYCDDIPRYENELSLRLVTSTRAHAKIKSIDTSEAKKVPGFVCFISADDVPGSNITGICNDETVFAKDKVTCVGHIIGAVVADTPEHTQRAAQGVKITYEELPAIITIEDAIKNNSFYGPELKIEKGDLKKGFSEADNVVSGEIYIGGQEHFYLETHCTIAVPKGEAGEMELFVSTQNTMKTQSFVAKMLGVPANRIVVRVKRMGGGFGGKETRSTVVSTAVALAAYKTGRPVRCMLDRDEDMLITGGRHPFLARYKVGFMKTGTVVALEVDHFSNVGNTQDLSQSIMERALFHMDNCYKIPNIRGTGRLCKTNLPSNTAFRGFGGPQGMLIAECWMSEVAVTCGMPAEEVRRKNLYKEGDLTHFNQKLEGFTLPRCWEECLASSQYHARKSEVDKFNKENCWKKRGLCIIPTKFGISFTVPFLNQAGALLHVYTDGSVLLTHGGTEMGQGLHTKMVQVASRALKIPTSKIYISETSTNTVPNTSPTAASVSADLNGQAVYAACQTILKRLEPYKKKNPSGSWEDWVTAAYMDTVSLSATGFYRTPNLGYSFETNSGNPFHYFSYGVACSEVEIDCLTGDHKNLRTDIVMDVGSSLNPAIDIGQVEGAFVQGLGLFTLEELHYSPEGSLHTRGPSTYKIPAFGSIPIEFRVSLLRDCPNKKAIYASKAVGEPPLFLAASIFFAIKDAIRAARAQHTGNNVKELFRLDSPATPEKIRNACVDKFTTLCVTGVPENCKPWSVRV

## COc1c2occc2c(NC(=O)c2ccccc2)c2ccc(=O)oc12 [3a, N-(9-Methoxy-7-oxo-7H-furo[3,2-g]chromen-4-yl)benzamide]
[1]
  inhibition at 100 µM: 3%
other
  melting point: 220 to 222 °C
MDA-MB-231 [2]
  inhibition at 50 µg/mL: 25%
T47-D
  inhibition at 50 µg/mL: 45%
[3]
  DPPH %Inh: 6%
Aromatase (CYP19)
  inhibition at 12.5 µM: 3%

## COc1c2occc2c(NC(=O)c2ccc(F)cc2)c2ccc(=O)oc12 [3b, 4-Fluoro-N-(9-methoxy-7-oxo-7H-furo[3,2-g]chromen-4-yl)benzamide]
[1]
  inhibition at 100 µM: 1%
other
  melting point: 276 to 277 °C
MDA-MB-231 [2]
  inhibition at 50 µg/mL: 34%
T47-D
  inhibition at 50 µg/mL: 49%
[3]
  DPPH %Inh: 3%
Aromatase (CYP19)
  inhibition at 12.5 µM: 6%

## COc1c2occc2c(NC(=O)c2ccc(Br)cc2)c2ccc(=O)oc12 [3c, 4-Bromo-N-(9-methoxy-7-oxo-7H-furo[3,2-g]chromen-4-yl)benzamide]
[1]
  HL-60 Antiox. %Inh: Toxic
other
  melting point: 293 to 294 °C
MDA-MB-231 [2]
  IC50: 91.3 ± 7.84 µM
T47-D
  IC50: 10.1 ± 0.53 µM
  Selectivity Index (SI): > 11.9
[3]
  DPPH %Inh: 6%
[4]
  XXO %Inh: 25%
Aromatase (CYP19)
  inhibition at 12.5 µM: 13%

## COc1c2occc2c(NC(=O)c2ccc(C(F)(F)F)cc2)c2ccc(=O)oc12 [3d, N-(9-Methoxy-7-oxo-7H-furo[3,2-g]chromen-4-yl)-4-(trifluoromethyl)benzamide]
[1]
  HL-60 Antiox. %Inh: Toxic
other
  melting point: 284 to 286 °C
MDA-MB-231 [2]
  inhibition at 50 µg/mL: 35%
T47-D
  fold superiority of SI over tamoxifen citrate: ≥ 2.8 fold
  IC50: 13.6 ± 0.26 µM
  Selectivity Index (SI): > 9.1
[3]
  DPPH %Inh: 7%
Aromatase (CYP19)
  inhibition at 12.5 µM: 10%

## COc1ccc(C(=O)Nc2c3ccoc3c(OC)c3oc(=O)ccc23)cc1 [3e, 4-Methoxy-N-(9-methoxy-7-oxo-7H-furo[3,2-g]chromen-4-yl)benzamide]
[1]
  inhibition at 100 µM: 0%
SK-BR-3 [5]
  IC50: 66.7 ± 2.75 µM
other
  melting point: 211 to 212 °C
MDA-MB-231 [2]
  inhibition at 50 µg/mL: 19%
MDA-MB-231 [6]
  IC50: > 100 µM
T47-D
  inhibition at 50 µg/mL: 38%
[3]
  DPPH %Inh: 4%
SK-BR-3 [7]
  IC50: > 100 µM
Aromatase (CYP19)
  inhibition at 12.5 µM: 15%
MDA-MB-231 [8]
  IC50: > 100 µM

## COc1c2occc2c(NC(=O)c2cccs2)c2ccc(=O)oc12 [3h, N-(9-Methoxy-7-oxo-7H-furo[3,2-g]chromen-4-yl) thiophene-2-carboxamide]
[1]
  inhibition at 100 µM: 24%
other
  melting point: 213 to 214 °C
MDA-MB-231 [2]
  inhibition at 50 µg/mL: 8%
T47-D
  inhibition at 50 µg/mL: 25%
[3]
  DPPH %Inh: 6%
Aromatase (CYP19)
  inhibition at 12.5 µM: 8%

## COc1c2occc2c(NC(C)=O)c2ccc(=O)oc12 [3i, N-(9-Methoxy-7-oxo-7H-furo[3,2-g]chromen-4-yl)acetamide]
[1]
  inhibition at 100 µM: 11%
other
  melting point: 251 to 252 °C
MDA-MB-231 [2]
  inhibition at 50 µg/mL: 6%
T47-D
  inhibition at 50 µg/mL: 20%
[3]
  DPPH %Inh: 1%
Xanthine oxidase
  inhibition at 500 µM: 47%
Aromatase (CYP19)
  inhibition at 12.5 µM: 7%

## COc1c2occc2c(NC(=O)C(C)(C)C)c2ccc(=O)oc12 [3l, N-(9-Methoxy-7-oxo-7H-furo[3,2-g]chromen-4-yl)pivalamide]
[1]
  inhibition at 100 µM: 10%
SK-BR-3 [5]
  IC50: 48.1 ± 3.07 µM
other
  melting point: 210 to 212 °C
MDA-MB-231 [2]
  inhibition at 50 µg/mL: 1%
MDA-MB-231 [6]
  IC50: > 100 µM
T47-D
  inhibition at 50 µg/mL: 21%
[3]
  DPPH %Inh: 1%
SK-BR-3 [7]
  IC50: > 100 µM
Aromatase (CYP19)
  inhibition at 12.5 µM: 14%
MDA-MB-231 [8]
  IC50: > 100 µM

## CCCCCC(=O)N(C(=O)CCCCC)c1c2ccoc2c(OC)c2oc(=O)ccc12 [3m, N-Hexanoyl-N-(9-methoxy-7-oxo-7H-furo[3,2-g]chromen-4-yl)hexanamide]
[1]
  inhibition at 100 µM: 0%
SK-BR-3 [5]
  IC50: 27.1 ± 1.2 µM
other
  melting point: 170 to 171 °C
MDA-MB-231 [2]
  inhibition at 50 µg/mL: 5%
MDA-MB-231 [6]
  IC50: > 100 µM
T47-D
  inhibition at 50 µg/mL: 15%
[3]
  DPPH %Inh: 1%
SK-BR-3 [7]
  IC50: > 100 µM
[4]
  XXO %Inh: 2%
Aromatase (CYP19)
  IC50: 9.4 ± 0.4 µM
MDA-MB-231 [8]
  IC50: > 100 µM

## COc1c2occc2c(NCc2ccc(Br)cc2)c2ccc(=O)oc12 [4b, 4-((4-Bromobenzyl)amino)-9-methoxy-7H-furo[3,2-g]chromen-7-one]
[1]
  HL-60 Antiox. %Inh: Toxic
other
  melting point: 150 to 151 °C
MDA-MB-231 [2]
  IC50: 94.4 ± 4.77 µM
T47-D
  fold superiority of SI over tamoxifen citrate: ≥ 3.7 fold
  IC50: 10.4 ± 0.79 µM
  Selectivity Index (SI): > 12.0
[3]; read-out: DPPH IC50
  IC50: 166 µM
Aromatase (CYP19)
  IC50: 0.9 ± 0.2 µM

## O=C1O[C@H]([C@@H](O)CO)C(O)=C1O [Ascorbic acid, reference compound]
[3]; half-maximal scavenging concentration, reference compound, read-out: DPPH IC50 (standard)
  IC50: 43.1 µM

## O=C(O)c1cc(O)c(O)c(O)c1 [Gallic acid, reference compound]
[4]; positive control, read-out: XXO IC50 (standard)
  IC50: 2.8 ± 0.1 µM

## COc1c2occc2c(N2C(=O)CSC2c2ccc(Br)cc2)c2ccc(=O)oc12 (centres unmarked) [III]
MCF-7
  anti-cancer activity (MCF-7): Inactive

## COc1c2occc2c(N=Cc2cccs2)c2ccc(=O)oc12 [II]
MCF-7
  anti-cancer activity (MCF-7): Inactive

## CCNC(=S)Nc1c2ccoc2c(OC)c2oc(=O)ccc12 [IVa]
MCF-7
  anti-cancer activity (MCF-7): Inactive

## COc1c2occc2c(NC(=S)NCc2ccccc2)c2ccc(=O)oc12 [IVb]
MCF-7
  anti-cancer activity (MCF-7): Inactive

## COc1c2occc2c([N+](=O)[O-])c2ccc(=O)oc12 [compound 1, 9-Methoxy-4-nitro-7H-furo[3,2-g]chromen-7-one]
[1]
  inhibition at 100 µM: 1%
other
  melting point: 237 to 238 °C
MDA-MB-231 [2]
  inhibition at 50 µg/mL: 39%
T47-D
  IC50: > 100 µM
[3]
  DPPH %Inh: 5%
Aromatase (CYP19)
  inhibition at 12.5 µM: 34%

## COc1c2occc2c(N)c2ccc(=O)oc12 [compound 2, 4-Amino-9-methoxy-7H-furo[3,2-g]chromen-7-one]
[1]
  inhibition at 100 µM: 0%
other
  melting point: 238 to 239 °C
MDA-MB-231 [2]
  inhibition at 50 µg/mL: 3%
T47-D
  inhibition at 50 µg/mL: 28%
[3]
  DPPH %Inh: 23%
Aromatase (CYP19)
  inhibition at 12.5 µM: 9%
